# Assay results as given in patent publication US9504729B2, “Antiangiogenic small molecules and methods of use” (The United States of America, as represented by the …, priority 2009, dated 2016).
# Tested on: angiogenesis genes in dermal microvascular endothelial cells
# Assay: Real time RT-PCR of angiogenesis gene expression during endothelial tube formation
# Format: cell-based
# Details: 1 μM SM, 24 hours
# Experimental: For gene expression studies, three independent experiments were run for each SM tested. 90.000 cells/well (6 wells/treatment) of dermal microvascular endothelial cells (Lonza, Walkersville, Md.) were seeded on polymerized GELTREX™ gel matrix (Invitrogen, Carlsbad, Calif.) in 24 well plates. Wells were immediately treated with the same volume of 1 μM SM or PBS. After 24 hours incubation at 37° C. and 5% CO2, cells were extracted using Cell Recovery Solution (BD Biosciences, San Jose, Calif., Cat. #354253). Total RNA was extracted with the RNeasy Mini Kit (Qiagen, Valencia, Calif., Cat. #74104), and retrotranscribed using […]® First-Strand reverse transcriptase (Invitrogen, Carlsbad, Calif., Cat. #11904-018). The real time PCR reactions were performed in an Opticon 2 cycler (MJ Research, Waltham, Mass.). Amplification was performed in a final volume of 25 μl, containing 2 μl cDNA (1:10 dilution from the reversed transcribed reaction) and 2 μl of primer mixture (10 μM each of forward and reverse primers). Samples were amplified as follows: after initial denaturation at 95 C for 2 minutes, reactions were run for 46 cycles at 95° C. for 30 seconds, 60° C. for 30 seconds, and 72° C. for 45 seconds. Fluorescence was measured in every cycle and a melting curve was run after the PCR by increasing temperature from 50 to 96° C. (in 0.5° C. increments). A defined single peak was obtained for all amplicons, thus confirming the specificity of the amplification.
# The genes that were monitored were selected based on their relevance to the angiogenesis process. All experiments were done in triplicate. The results are shown in the volcano plots of FIG. 17. Log 2 fold-change is presented in the X-axis and log 10 P value in the Y-axis.
structure (smiles),measurement,setting,value
CCC(=O)OCN1C(=O)C=CC1=O [compound 19630],Log2 fold-change of gene expression: 1839,,−1.2
same,Log2 fold-change of gene expression: 4247,,1.0
same,Log2 fold-change of gene expression: 5569,,−3.0
same,Log2 fold-change of gene expression: 8131,,0.6
same,Log2 fold-change of gene expression: 9569,,−2.3
same,Log2 fold-change of gene expression: 10988,,2.5
same,Log2 fold-change of gene expression: 23001,,0.4
same,Log2 fold-change of gene expression: 55332,,−1.1
same,Log2 fold-change of gene expression: 57722,,0.2
same,Log2 fold-change of gene expression: 58488,,1.2
same,Log2 fold-change of gene expression: 90780,,−1.2
same,Log2 fold-change of gene expression: 134265,,−1.6
same,Log2 fold-change of gene expression: AKT1,,0.1
same,Log2 fold-change of gene expression: ANGPT1,,−0.5
same,Log2 fold-change of gene expression: ANGPT2,,−1.8
same,Log2 fold-change of gene expression: ANGPTL3,,−5.0
same,Log2 fold-change of gene expression: ANGPTL4,,−0.2
same,Log2 fold-change of gene expression: ANPEP,,−0.4
same,Log2 fold-change of gene expression: ANTXR1,,−0.3
same,Log2 fold-change of gene expression: APOE,,3.3
same,Log2 fold-change of gene expression: ARHGEF1,,0.2
same,Log2 fold-change of gene expression: Acvrl1,,−0.6
same,Log2 fold-change of gene expression: Adcy4,,0.0
same,Log2 fold-change of gene expression: BAL1,,−0.9
same,Log2 fold-change of gene expression: BMP1,,0.5
same,Log2 fold-change of gene expression: C1orf54,,−4.8
same,Log2 fold-change of gene expression: CALD1,,1.7
same,Log2 fold-change of gene expression: CCL2,,2.3
same,Log2 fold-change of gene expression: CCL11,,−0.3
same,Log2 fold-change of gene expression: CD248,,1.3
same,Log2 fold-change of gene expression: CDH5,,−0.2
same,Log2 fold-change of gene expression: CENTD3,,0.6
same,Log2 fold-change of gene expression: CLIC1,,−0.1
same,Log2 fold-change of gene expression: COL4A3,,0.1
same,Log2 fold-change of gene expression: COL18A1,,0.4
same,Log2 fold-change of gene expression: COMT,,−0.7
same,Log2 fold-change of gene expression: CST4,,0.8
same,Log2 fold-change of gene expression: CTTNBP2NL,,−2.3
same,Log2 fold-change of gene expression: CXCL3,,12.1
same,Log2 fold-change of gene expression: CXCL5,,4.8
same,Log2 fold-change of gene expression: CXCL6,,−0.5
same,Log2 fold-change of gene expression: CXCL9,,−1.0
same,Log2 fold-change of gene expression: CXCL10,,4.7
same,Log2 fold-change of gene expression: Calcr1,,−4.3
same,Log2 fold-change of gene expression: Caskin2,,−2.8
same,Log2 fold-change of gene expression: Ccbp2,,−0.1
same,Log2 fold-change of gene expression: Cldn5,,0.6
same,Log2 fold-change of gene expression: DGKG,,5.4
same,Log2 fold-change of gene expression: DKK3,,−1.5
same,Log2 fold-change of gene expression: DLL4,,−4.5
same,Log2 fold-change of gene expression: DUT,,−0.8
same,Log2 fold-change of gene expression: EFNA1,,3.7
same,Log2 fold-change of gene expression: EFNA3,,−0.4
same,Log2 fold-change of gene expression: EFNB2,,−1.9
same,Log2 fold-change of gene expression: EGF,,−1.0
same,Log2 fold-change of gene expression: ENG,,0.1
same,Log2 fold-change of gene expression: EPHB4,,−0.8
same,Log2 fold-change of gene expression: EREG,,7.6
same,Log2 fold-change of gene expression: ESAM1,,−3.3
same,Log2 fold-change of gene expression: EXTL3,,1.0
same,Log2 fold-change of gene expression: Egf17,,−3.8
same,Log2 fold-change of gene expression: Ehd4,,−1.1
same,Log2 fold-change of gene expression: Entpd1,,−4.9
same,Log2 fold-change of gene expression: Epas1,,1.8
same,Log2 fold-change of gene expression: EphB1,,0.0
same,Log2 fold-change of gene expression: Erg,,−1.6
same,Log2 fold-change of gene expression: FGF1,,−3.0
same,Log2 fold-change of gene expression: FGF2,,1.7
same,Log2 fold-change of gene expression: FGFR3,,−0.2
same,Log2 fold-change of gene expression: FIGF,,−3.2
same,Log2 fold-change of gene expression: FLT1,,−2.1
same,Log2 fold-change of gene expression: Fgd5,,−1.6
same,Log2 fold-change of gene expression: GPCR124,,−1.7
same,Log2 fold-change of gene expression: GRRP1,,0.0
same,Log2 fold-change of gene expression: Grp116,,−1.9
same,Log2 fold-change of gene expression: HAND2,,−0.5
same,Log2 fold-change of gene expression: HGF,,−0.3
same,Log2 fold-change of gene expression: HIF1A,,−1.7
same,Log2 fold-change of gene expression: HPSE,,0.6
same,Log2 fold-change of gene expression: Hspa12b,,−4.6
same,Log2 fold-change of gene expression: ID1,,1.0
same,Log2 fold-change of gene expression: ID3,,0.4
same,Log2 fold-change of gene expression: IFNA1,,0.4
same,Log2 fold-change of gene expression: IFNB1,,−0.4
same,Log2 fold-change of gene expression: IFNG,,4.7
same,Log2 fold-change of gene expression: IGF1,,3.6
same,Log2 fold-change of gene expression: IL1B,,0.2
same,Log2 fold-change of gene expression: IL6,,3.5
same,Log2 fold-change of gene expression: IL8,,3.0
same,Log2 fold-change of gene expression: ITGAV,,−0.3
same,Log2 fold-change of gene expression: ITGB3,,−0.9
same,Log2 fold-change of gene expression: Icam1,,0.1
same,Log2 fold-change of gene expression: Icam2,,0.4
same,Log2 fold-change of gene expression: JAG1,,−1.2
same,Log2 fold-change of gene expression: KDR,,−2.7
same,Log2 fold-change of gene expression: Kifc1,,3.4
same,Log2 fold-change of gene expression: LAMAS5,,−0.8
same,Log2 fold-change of gene expression: LECT1,,−0.4
same,Log2 fold-change of gene expression: LEP,,−4.5
same,Log2 fold-change of gene expression: Lasts2,,−0.1
same,Log2 fold-change of gene expression: Lrrk1,,−2.9
same,Log2 fold-change of gene expression: MDK,,−1.1
same,Log2 fold-change of gene expression: MMP2,,0.5
same,Log2 fold-change of gene expression: MMP9,,0.3
same,Log2 fold-change of gene expression: MMP11,,0.8
same,Log2 fold-change of gene expression: MRC2,,1.6
same,Log2 fold-change of gene expression: Mmm2,,−2.4
same,Log2 fold-change of gene expression: Myo1b,,−2.3
same,Log2 fold-change of gene expression: NID1,,−2.6
same,Log2 fold-change of gene expression: NM023516,,0.5
same,Log2 fold-change of gene expression: NRP1,,−0.5
same,Log2 fold-change of gene expression: NRP2,,−2.2
same,Log2 fold-change of gene expression: Notch4,,−1.8
same,Log2 fold-change of gene expression: Npr3,,8.3
same,Log2 fold-change of gene expression: PALD,,−1.1
same,Log2 fold-change of gene expression: PDCD2,,0.5
same,Log2 fold-change of gene expression: PDGFA,,−0.7
same,Log2 fold-change of gene expression: PECAM1,,−2.6
same,Log2 fold-change of gene expression: PGF,,−2.4
same,Log2 fold-change of gene expression: PLAU,,0.1
same,Log2 fold-change of gene expression: PLG,,−2.7
same,Log2 fold-change of gene expression: PNMT,,0.7
same,Log2 fold-change of gene expression: PROK2,,−1.3
same,Log2 fold-change of gene expression: PTGS1,,−2.4
same,Log2 fold-change of gene expression: PTPRCAP,,0.4
same,Log2 fold-change of gene expression: Pltp,,0.9
same,Log2 fold-change of gene expression: Ptprb,,−1.6
same,Log2 fold-change of gene expression: Ptprm,,−1.2
same,Log2 fold-change of gene expression: RAMP2,,−4.8
same,Log2 fold-change of gene expression: RASD2,,0.9
same,Log2 fold-change of gene expression: Rasip1,,3.1
same,Log2 fold-change of gene expression: S1PR1,,−2.6
same,Log2 fold-change of gene expression: SERPINF1,,−0.8
same,Log2 fold-change of gene expression: SPHK1,,−0.5
same,Log2 fold-change of gene expression: STAB1,,−1.0
same,Log2 fold-change of gene expression: Sdc4,,2.2
same,Log2 fold-change of gene expression: Sdpr,,−0.1
same,Log2 fold-change of gene expression: Slc43a3,,−0.8
same,Log2 fold-change of gene expression: Slco2a1,,−2.5
same,Log2 fold-change of gene expression: TEK,,−0.4
same,Log2 fold-change of gene expression: TGFA,,1.1
same,Log2 fold-change of gene expression: TGFB1,,−1.3
same,Log2 fold-change of gene expression: TGFB2,,−0.5
same,Log2 fold-change of gene expression: TGFBR1,,−0.1
same,Log2 fold-change of gene expression: THBS1,,0.5
same,Log2 fold-change of gene expression: THBS2,,−0.6
same,Log2 fold-change of gene expression: THY1,,−11.3
same,Log2 fold-change of gene expression: TIMP1,,−0.8
same,Log2 fold-change of gene expression: TIMP2,,−0.9
same,Log2 fold-change of gene expression: TIMP3,,0.7
same,Log2 fold-change of gene expression: TNF,,−0.6
same,Log2 fold-change of gene expression: TNS1,,0.6
same,Log2 fold-change of gene expression: TNS3,,−1.8
same,Log2 fold-change of gene expression: TRA2B,,1.5
same,Log2 fold-change of gene expression: TYMP,,0.3
same,Log2 fold-change of gene expression: VEGFA,,4.2
same,Log2 fold-change of gene expression: VEGFC,,0.1
same,Log2 fold-change of gene expression: VGLL4,,−1.3
same,Log2 fold-change of gene expression: Vwf,,−1.8
same,Log2 fold-change of gene expression: copa,,0.4
same,Log2 fold-change of gene expression: itbp4,,−0.8
same,Log2 fold-change of gene expression: ralb,,0.1
same,Log2 fold-change of gene expression: stard9,,−0.7
same,Log2 fold-change of gene expression: B2M,1st listing (r49),0.0
same,Log2 fold-change of gene expression: HPRT1,1st listing (r50),0.8
same,Log2 fold-change of gene expression: RPL13A,1st listing (r51),−0.2
same,Log2 fold-change of gene expression: GADPH,1st listing (r52),0.1
same,Log2 fold-change of gene expression: ACTB,1st listing (r53),0.1
same,Log2 fold-change of gene expression: PLXDC1,1st listing (r74),−4.0
same,Log2 fold-change of gene expression: TNFAIP2,1st listing (r91),0.2
same,Log2 fold-change of gene expression: Robo4,1st listing (r95),0.1
same,Log2 fold-change of gene expression: 151516,1st listing (r134),1.2
same,Log2 fold-change of gene expression: TNFAIP2,2nd listing (r92),−0.4
same,Log2 fold-change of gene expression: B2M,2nd listing (r97),−0.1
same,Log2 fold-change of gene expression: HPRT1,2nd listing (r98),0.9
same,Log2 fold-change of gene expression: RPL13A,2nd listing (r99),0.3
same,Log2 fold-change of gene expression: GADPH,2nd listing (r100),−0.3
same,Log2 fold-change of gene expression: ACTB,2nd listing (r101),−0.3
same,Log2 fold-change of gene expression: PLXDC1,2nd listing (r104),−5.7
same,Log2 fold-change of gene expression: 151516,2nd listing (r139),0.9
same,Log2 fold-change of gene expression: Robo4,2nd listing (r188),0.3
same,Log2 fold-change of gene expression: B2M,3rd listing (r145),−1.4
same,Log2 fold-change of gene expression: HPRT1,3rd listing (r146),0.2
same,Log2 fold-change of gene expression: RPL13A,3rd listing (r147),1.0
same,Log2 fold-change of gene expression: GADPH,3rd listing (r148),0.1
same,Log2 fold-change of gene expression: ACTB,3rd listing (r149),−0.9
same,Log2 fold-change of gene expression: B2M,4th listing (r193),−0.9
same,Log2 fold-change of gene expression: HPRT1,4th listing (r194),2.0
same,Log2 fold-change of gene expression: RPL13A,4th listing (r195),0.4
same,Log2 fold-change of gene expression: GADPH,4th listing (r196),−1.6
same,Log2 fold-change of gene expression: ACTB,4th listing (r197),−1.6
